Numbers after ± are expanded uncertainties.
Experiments:
[1] = Molar enthalpy of transition or fusion; conditions: Crystal; DSC
[2] = for vapor or sublimation pressure: Closed cell (Static) method; for Normal melting temperature: DTA

Oc1ccc(F)cc1 [4-fluorophenol]
Conditions	Molar enthalpy of transition or fusion [kJ/mol]
[1]	14.5 ± 0.4

vapor or sublimation pressure [kPa], [2]
Conditions	Crystal	Liquid
265.62 K	0.00084 ± 0.0001	–
267.58 K	0.00108 ± 0.0001	–
269.54 K	0.00137 ± 0.00011	–
271.5 K	0.00174 ± 0.00012	–
273.49 K	0.00222 ± 0.00013	–
275.43 K	0.00279 ± 0.00015	–
277.43 K	0.00353 ± 0.00017	–
279.39 K	0.00443 ± 0.0002	–
281.38 K	0.00555 ± 0.00024	–
283.36 K	0.00696 ± 0.00029	–
285.33 K	0.00863 ± 0.00035	–
287.34 K	0.01071 ± 0.00043	–
289.29 K	0.01329 ± 0.00052	–
291.3 K	0.01648 ± 0.00057	–
291.39 K	–	0.02895 ± 0.00076
293.29 K	0.02028 ± 0.00063	–
293.35 K	–	0.03339 ± 0.00083
295.26 K	0.02476 ± 0.00069	–
295.34 K	–	0.0394 ± 0.00092
297.24 K	0.03044 ± 0.00078	–
297.32 K	–	0.04637 ± 0.001
299.25 K	0.03741 ± 0.00089	0.05448 ± 0.0011
301.19 K	0.04503 ± 0.001	–
301.24 K	–	0.06387 ± 0.0013
303.21 K	0.05518 ± 0.0012	–
303.22 K	–	0.07471 ± 0.0015
305.19 K	0.06658 ± 0.0013	–
305.24 K	–	0.08751 ± 0.0017
307.18 K	0.08105 ± 0.0016	–
307.21 K	–	0.1019 ± 0.0019
309.16 K	0.09599 ± 0.0018	–
309.2 K	–	0.1187 ± 0.0022
311.12 K	0.1152 ± 0.0021	–
311.17 K	–	0.1369 ± 0.0022
313.11 K	0.1383 ± 0.0022	–
313.15 K	–	0.1588 ± 0.0024
315.06 K	–	0.1811 ± 0.0026
315.1 K	0.1647 ± 0.0025	–
317.01 K	–	0.2084 ± 0.0029
317.07 K	0.197 ± 0.0028	–
319.02 K	–	0.2365 ± 0.0032
321.01 K	–	0.2738 ± 0.0036
323.1 K	–	0.3152 ± 0.004
325.09 K	–	0.3611 ± 0.0045
327.06 K	–	0.4129 ± 0.0051
329.05 K	–	0.4644 ± 0.0056
331.02 K	–	0.5332 ± 0.0064
333.01 K	–	0.5995 ± 0.0071
335 K	–	0.6828 ± 0.008
336.96 K	–	0.7646 ± 0.0088
338.93 K	–	0.8651 ± 0.0099
340.78 K	–	0.9558 ± 0.011
342.84 K	–	1.084 ± 0.012

Conditions	Normal melting temperature [°C]
[2], Crystal	47.2 ± 0.4

Oc1ccc(I)cc1 [4-iodophenol]
Conditions	Molar enthalpy of transition or fusion [kJ/mol]
[1]	20.8 ± 0.5

vapor or sublimation pressure [kPa], [2]
Conditions	Crystal	Liquid
307.15 K	0.00064 ± 0.00011	–
309.13 K	0.00079 ± 0.00011	–
311.09 K	0.00098 ± 0.00011	–
313.1 K	0.00123 ± 0.00012	–
315.1 K	0.00152 ± 0.00012	–
317.05 K	0.00189 ± 0.00013	–
319.1 K	0.00236 ± 0.00014	–
321.01 K	0.00288 ± 0.00016	–
323.01 K	0.00353 ± 0.00018	–
325.06 K	0.00436 ± 0.0002	–
326.95 K	0.00527 ± 0.00024	–
329.02 K	0.00647 ± 0.00028	–
330.91 K	0.00781 ± 0.00033	–
332.98 K	0.00956 ± 0.00039	–
334.88 K	0.01147 ± 0.00046	–
336.93 K	–	0.02432 ± 0.00069
336.95 K	0.01399 ± 0.00053	–
338.83 K	0.01662 ± 0.00057	–
338.84 K	–	0.02795 ± 0.00074
340.71 K	–	0.03222 ± 0.00081
340.9 K	0.02012 ± 0.00063	–
342.72 K	–	0.03713 ± 0.00089
342.79 K	0.02397 ± 0.00068	–
344.73 K	–	0.04253 ± 0.00097
344.86 K	0.02883 ± 0.00076	–
346.71 K	0.03411 ± 0.00084	–
346.73 K	–	0.04894 ± 0.0011
348.71 K	–	0.05593 ± 0.0012
348.82 K	0.04092 ± 0.00095	–
350.67 K	0.0482 ± 0.0011	–
350.69 K	–	0.06373 ± 0.0013
352.67 K	–	0.07262 ± 0.0014
352.76 K	0.05731 ± 0.0012	–
354.59 K	0.06713 ± 0.0014	–
354.62 K	–	0.08281 ± 0.0016
356.58 K	–	0.09387 ± 0.0018
356.72 K	0.07984 ± 0.0015	–
358.58 K	0.09351 ± 0.0018	0.1065 ± 0.002
360.56 K	–	0.1204 ± 0.0022
360.65 K	0.1108 ± 0.0021	–
362.52 K	–	0.1359 ± 0.0022
364.52 K	–	0.1533 ± 0.0024
366.46 K	–	0.1729 ± 0.0026
368.57 K	–	0.1961 ± 0.0028
370.44 K	–	0.2178 ± 0.003
372.51 K	–	0.2463 ± 0.0033
374.38 K	–	0.2725 ± 0.0036
376.46 K	–	0.3075 ± 0.004
378.32 K	–	0.3409 ± 0.0043
380.41 K	–	0.382 ± 0.0047

Conditions	Normal melting temperature [°C]
[2], Crystal	92.7 ± 0.4

— the NIST ThermoML archive (doi:10.1016/j.jct.2013.05.047)
